“And” between values parts separate entries of the source, which are not always exact repeats. Equal entries are not always repeated. Where two headings read alike, the source gives them in different places.
Assays:
PAMPA [1] = conditions: UV detection
PAMPA [2] = conditions: UV detection, initial concentration 500 uM
[3] = PAMPA, 500 uM
[4] = initial concentration 500 uM, UV detection
[5] = UV detection
in vitro = conditions: PAMPA, Papp
[6] = calculated using Supplement Equation 1, UV detection
[7] = Papp (x 10^-6 cm/s) / experiment 1
[8] = Papp (x 10^-6 cm/s) / experiment 2
[9] = Papp (x 10^-6 cm/s) / experiment 3
[10] = Papp (x 10^-6 cm/s) / experiment 4
[11] = Papp (x 10^-6 cm/s) / experiment 5
[12] = Papp (x 10^-6 cm/s) / experiment 6
[13] = Papp (x 10^-6 cm/s) / experiment 7
[14] = Papp (x 10^-6 cm/s) / experiment 8
[15] = Papp (x 10^-6 cm/s) / experiment 9
[16] = Papp (x 10^-6 cm/s) / experiment 10
[17] = Acceptor Concentration (uM) / experiment 1
[18] = Acceptor Concentration (uM) / experiment 2
[19] = Acceptor Concentration (uM) / experiment 3
[20] = Acceptor Concentration (uM) / experiment 4
[21] = Acceptor Concentration (uM) / experiment 5
[22] = Acceptor Concentration (uM) / experiment 6
[23] = Acceptor Concentration (uM) / experiment 7
[24] = Acceptor Concentration (uM) / experiment 8
[25] = Acceptor Concentration (uM) / experiment 9
[26] = Acceptor Concentration (uM) / experiment 10
[27] = Well 1 / [donor], Well 1, standard curve
[28] = Well 2 / [donor], Well 2, standard curve
[29] = Well 3 / [donor], Well 3, standard curve
[30] = Well 4 / [donor], Well 4, standard curve
[31] = Well 5 / [donor], Well 5, standard curve

CCCCC[C@H](OC(=O)[C@@H](C)N(C)C(=O)[C@H](CCCCC)OC(=O)[C@@H](C)N(C)C(=O)[C@H](CCCCC)OC(=O)[C@@H](C)N(C)C(=O)[C@H](CCCCC)OC(=O)[C@@H](C)N(C)C(=O)OC(C)(C)C)C(=O)OCc1ccccc1 [Compound L1.4] showed a Papp (PAMPA [1]; Papp (x 10^-6 cm/s) / [row 1]) of 1.61 ×10⁻⁶ cm/s, a Papp (PAMPA [1]; Papp (x 10^-6 cm/s) / [row 2]) of 2.02 ×10⁻⁶ cm/s and a Papp (PAMPA [1]; Papp (x 10^-6 cm/s) / [row 3]) of 2.01 ×10⁻⁶ cm/s. For the same molecule, the Papp (PAMPA [1]; Papp (x 10^-6 cm/s) / [row 4]) was 2.03 ×10⁻⁶ cm/s, the Papp (PAMPA [1]; Papp (x 10^-6 cm/s) / [row 5]) was 2.24 ×10⁻⁶ cm/s and the Papp (PAMPA [1]; Papp (x 10^-6 cm/s) / [row 6]) was 2.09 ×10⁻⁶ cm/s. It also gave a Papp (PAMPA [1]; Papp (x 10^-6 cm/s) / [row 7]) of 1.63 ×10⁻⁶ cm/s, a Papp (PAMPA [1]; Papp (x 10^-6 cm/s) / [row 8]) of 1.88 ×10⁻⁶ cm/s and a Papp (PAMPA [1]; Papp (x 10^-6 cm/s) / [row 9]) of 2.15 ×10⁻⁶ cm/s. For the same molecule, the Papp (PAMPA [1]; Papp (x 10^-6 cm/s) / [row 10]) was 1.75 ×10⁻⁶ cm/s, the Papp (PAMPA [1]; [7]) was 1.61 ×10⁻⁶ cm/s and the Papp (PAMPA [1]; [8]) was 2.02 ×10⁻⁶ cm/s. It also gave a Papp (PAMPA [1]; [9]) of 2.01 ×10⁻⁶ cm/s, a Papp (PAMPA [1]; [10]) of 2.03 ×10⁻⁶ cm/s and a Papp (PAMPA [1]; [11]) of 2.24 ×10⁻⁶ cm/s. For the same molecule, the Papp (PAMPA [1]; [12]) was 2.09 ×10⁻⁶ cm/s, the Papp (PAMPA [1]; [13]) was 1.63 ×10⁻⁶ cm/s and the Papp (PAMPA [1]; [14]) was 1.88 ×10⁻⁶ cm/s. It also gave a Papp (PAMPA [1]; [15]) of 2.15 ×10⁻⁶ cm/s, a Papp (PAMPA [1]; [16]) of 1.75 ×10⁻⁶ cm/s and an Acceptor Concentration (PAMPA [2]; Acceptor Concentration (uM) / [row 1]) of 52.3 µM. For the same molecule, the Acceptor Concentration (PAMPA [2]; Acceptor Concentration (uM) / [row 2]) was 57.9 µM, the Acceptor Concentration (PAMPA [2]; Acceptor Concentration (uM) / [row 3]) was 64.4 µM and the Acceptor Concentration (PAMPA [2]; Acceptor Concentration (uM) / [row 4]) was 61.4 µM. It also gave an Acceptor Concentration (PAMPA [2]; Acceptor Concentration (uM) / [row 5]) of 62.2 µM, an Acceptor Concentration (PAMPA [2]; Acceptor Concentration (uM) / [row 6]) of 61.3 µM and an Acceptor Concentration (PAMPA [2]; Acceptor Concentration (uM) / [row 7]) of 51.5 µM. The Acceptor Concentration (PAMPA [2]; Acceptor Concentration (uM) / [row 8]) was 55 µM, the Acceptor Concentration (PAMPA [2]; Acceptor Concentration (uM) / [row 9]) was 59.1 µM and the Acceptor Concentration (PAMPA [2]; Acceptor Concentration (uM) / [row 10]) was 51.7 µM. The Acceptor Concentration (PAMPA [2]; [17]) was 52.3 µM, the Acceptor Concentration (PAMPA [2]; [18]) was 57.9 µM and the Acceptor Concentration (PAMPA [2]; [19]) was 64.4 µM. The Acceptor Concentration (PAMPA [2]; [20]) was 61.4 µM, the Acceptor Concentration (PAMPA [2]; [21]) was 62.2 µM and the Acceptor Concentration (PAMPA [2]; [22]) was 61.3 µM. For the same molecule, the Acceptor Concentration (PAMPA [2]; [23]) was 51.5 µM, the Acceptor Concentration (PAMPA [2]; [24]) was 55 µM and the Acceptor Concentration (PAMPA [2]; [25]) was 59.1 µM. For the same molecule, the Acceptor Concentration (PAMPA [2]; [26]) was 51.7 µM, the Δ % diffusion [3] was “↑14%” and the donor concentration after incubation ([4]; Well 1 / [donor], Well 1) was 417 µM and 390 µM. The donor concentration after incubation [4, 27] was 417 µM and 390 µM, the donor concentration after incubation ([4]; Well 2 / [donor], Well 2) was 379 µM and 406 µM and the donor concentration after incubation [4, 28] was 379 µM and 406 µM. For the same molecule, the donor concentration after incubation ([4]; Well 3 / [donor], Well 3) was 432 µM and 382 µM, the donor concentration after incubation [4, 29] was 432 µM and 382 µM and the donor concentration after incubation ([4]; Well 4 / [donor], Well 4) was 404 µM and 364 µM. For the same molecule, the donor concentration after incubation [4, 30] was 404 µM and 364 µM, the donor concentration after incubation ([4]; Well 5 / [donor], Well 5) was 372 µM and 379 µM and the donor concentration after incubation [4, 31] was 372 µM and 379 µM. For the same molecule, the % recovery ([5]; Well 1 / %R, Well 1) was 94%, the % recovery ([5]; Well 2 / %R, Well 2) was 87% (2×) and 92% (2×) and the % recovery ([5]; Well 3 / %R, Well 3) was 99% (2×) and 87% (2×). The % recovery ([5]; Well 4 / %R, Well 4) was 93% (2×) and 85% (2×), the % recovery ([5]; Well 5 / %R, Well 5) was 87% (2×) and 86% (2×) and the Papp at 500 uM (in vitro) was 1.94 ± 0.22 ×10⁻⁶ cm/s. For the same molecule, the %T ([6]; Well 1 / %T, Well 1) was 0.25% (2×) and 0.31% (2×), the %T ([6]; Well 2 / %T, Well 2) was 0.3% (2×) and 0.25% (2×) and the %T ([6]; Well 3 / %T, Well 3) was 0.3% (2×) and 0.28% (2×). For the same molecule, the %T ([6]; Well 4 / %T, Well 4) was 0.31% (2×) and 0.32% (2×) and the %T ([6]; Well 5 / %T, Well 5) was 0.33% (2×) and 0.26% (2×).

CCCCC[C@H](OC(=O)[C@@H](C)N(C)C(=O)[C@H](CCCCC)OC(=O)[C@@H](C)N(C)C(=O)[C@H](CCCCC)OC(=O)[C@@H](C)N(C)C(=O)[C@H](CCCCC)OC(=O)[C@@H](C)N(C)C(=O)[C@H](CCCCC)OC(=O)[C@@H](C)N(C)C(=O)OC(C)(C)C)C(=O)OCc1ccccc1 [Compound L1.5] showed a Papp (PAMPA [1]; [7]) of 2.29 ×10⁻⁶ cm/s, a Papp (PAMPA [1]; [8]) of 1.55 ×10⁻⁶ cm/s and a Papp (PAMPA [1]; [9]) of 1.77 ×10⁻⁶ cm/s. The Papp (PAMPA [1]; [10]) was 1.78 ×10⁻⁶ cm/s, the Papp (PAMPA [1]; [11]) was 1.56 ×10⁻⁶ cm/s and the Papp (PAMPA [1]; [12]) was 1.9 ×10⁻⁶ cm/s. It also gave a Papp (PAMPA [1]; [13]) of 1.61 ×10⁻⁶ cm/s, a Papp (PAMPA [1]; [14]) of 1.79 ×10⁻⁶ cm/s and a Papp (PAMPA [1]; [15]) of 1.89 ×10⁻⁶ cm/s. It also gave a Papp (PAMPA [1]; [16]) of 1.94 ×10⁻⁶ cm/s, an Acceptor Concentration (PAMPA [2]; [17]) of 50.2 µM and an Acceptor Concentration (PAMPA [2]; [18]) of 38.4 µM. It also gave an Acceptor Concentration (PAMPA [2]; [19]) of 40.2 µM, an Acceptor Concentration (PAMPA [2]; [20]) of 40.8 µM and an Acceptor Concentration (PAMPA [2]; [21]) of 37.5 µM. For the same molecule, the Acceptor Concentration (PAMPA [2]; [22]) was 47.1 µM, the Acceptor Concentration (PAMPA [2]; [23]) was 40.3 µM and the Acceptor Concentration (PAMPA [2]; [24]) was 41 µM. The Acceptor Concentration (PAMPA [2]; [25]) was 45.3 µM, the Acceptor Concentration (PAMPA [2]; [26]) was 48 µM and the Δ % diffusion [3] was “↑4%”. The donor concentration after incubation [4, 27] was 366 µM and 419 µM, the donor concentration after incubation [4, 28] was 425 µM and 429 µM and the donor concentration after incubation [4, 29] was 387 µM and 389 µM. For the same molecule, the donor concentration after incubation [4, 30] was 390 µM and 406 µM, the donor concentration after incubation [4, 31] was 412 µM and 419 µM and the % recovery ([5]; Well 1 / %R, Well 1) was 83% and 93%. The % recovery ([5]; Well 2 / %R, Well 2) was 93% and 94%, the % recovery ([5]; Well 3 / %R, Well 3) was 85% and 86% and the % recovery ([5]; Well 4 / %R, Well 4) was 86% and 90%. The % recovery ([5]; Well 5 / %R, Well 5) was 90% and 93%, the Papp at 500 uM (in vitro) was 1.81 ± 0.22 ×10⁻⁶ cm/s and the %T ([6]; Well 1 / %T, Well 1) was 0.33% and 0.28%. For the same molecule, the %T ([6]; Well 2 / %T, Well 2) was 0.24% and 0.25%, the %T ([6]; Well 3 / %T, Well 3) was 0.27% and the %T ([6]; Well 4 / %T, Well 4) was 0.27% and 0.29%. The %T ([6]; Well 5 / %T, Well 5) was 0.24% and 0.29%.

— paper PMC11995216, “End-to-End Backbone Cyclization Enhances Passive Permeability of bRo5 Oligomeric Depsipeptides with Nonlinear Size Dependence” (ACS Medicinal Chemistry Letters, 2025)
